Measurements as given in patent publication US20250059188A1, “ARYLSULPHONAMIDE COMPOUNDS” (Anaxis Pharma Pty Ltd, priority 2021, published 2025).

Legend:
[1] = system: Immortalised Mouse Dermal Fibroblasts (MDFs); test: Inhibition of TSI induced necroptosis in mouse dermal fibroblasts (CellTitre-Glo); conditions: Mus musculus, Fibroblast, 3 h, MDF cells, TSI cocktail (TNF, Smac mimetic, IDN-6556), read-out: Inhibition of TSI-induced necroptosis (IC50 cell-based assay) in MDF
In short: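 Immortalised MDFs (2200 cells/well, DMEM + 7.4% FBS) pretreated 30 min with compound (36 μM top, 1:3, 10 points, 0.3% DMSO), then 3 h with TNF 100 ng/ml, Smac mimetic 500 nM and IDN-6556 10 μM at 37 °C. Viability by CellTiter-Glo luminescence; IC50 from 4-parameter logistic fit.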

human RIPK1 = human RIPK1 (Homo sapiens (Human), UniProt Q13546); test: KINOMEscan binding assay, human RIPK1; conditions: equilibrium dissociation constant
Sequence of human RIPK1 (Q13546 whole entry): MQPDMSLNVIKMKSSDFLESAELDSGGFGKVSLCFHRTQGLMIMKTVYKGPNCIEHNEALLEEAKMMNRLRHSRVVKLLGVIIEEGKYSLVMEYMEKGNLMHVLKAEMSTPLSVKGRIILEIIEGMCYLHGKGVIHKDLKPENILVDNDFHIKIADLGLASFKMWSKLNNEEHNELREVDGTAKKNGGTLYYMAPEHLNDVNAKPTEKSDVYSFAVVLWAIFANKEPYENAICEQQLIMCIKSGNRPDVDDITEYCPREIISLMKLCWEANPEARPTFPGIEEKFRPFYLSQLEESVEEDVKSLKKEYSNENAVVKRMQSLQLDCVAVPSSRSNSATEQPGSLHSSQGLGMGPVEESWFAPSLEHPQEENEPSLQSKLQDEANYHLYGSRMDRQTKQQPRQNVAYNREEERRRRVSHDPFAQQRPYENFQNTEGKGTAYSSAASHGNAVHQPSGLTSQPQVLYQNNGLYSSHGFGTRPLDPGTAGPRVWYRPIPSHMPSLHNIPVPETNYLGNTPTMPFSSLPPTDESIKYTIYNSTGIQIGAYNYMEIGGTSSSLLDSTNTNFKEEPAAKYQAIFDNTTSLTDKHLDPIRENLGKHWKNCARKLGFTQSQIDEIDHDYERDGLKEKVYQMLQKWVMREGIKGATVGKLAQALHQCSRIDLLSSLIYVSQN
In short: (§1)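 Assay principle: test compound competes with immobilized bead ligand for kinase; kinase retained, then eluted, is counted by qPCR. Conditions were 1% DMSO final with 11 compound concentrations in 3-fold steps, 30,000 nM top for most. The Hill equation with slope −1 gave Kd.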

human MLKL (full length) = human MLKL (full length) (Homo sapiens (Human), UniProt Q8NB16); test: KINOMEscan binding assay, human MLKL (full length); conditions: equilibrium dissociation constant
Sequence of human MLKL (full length) (Q8NB16 whole entry): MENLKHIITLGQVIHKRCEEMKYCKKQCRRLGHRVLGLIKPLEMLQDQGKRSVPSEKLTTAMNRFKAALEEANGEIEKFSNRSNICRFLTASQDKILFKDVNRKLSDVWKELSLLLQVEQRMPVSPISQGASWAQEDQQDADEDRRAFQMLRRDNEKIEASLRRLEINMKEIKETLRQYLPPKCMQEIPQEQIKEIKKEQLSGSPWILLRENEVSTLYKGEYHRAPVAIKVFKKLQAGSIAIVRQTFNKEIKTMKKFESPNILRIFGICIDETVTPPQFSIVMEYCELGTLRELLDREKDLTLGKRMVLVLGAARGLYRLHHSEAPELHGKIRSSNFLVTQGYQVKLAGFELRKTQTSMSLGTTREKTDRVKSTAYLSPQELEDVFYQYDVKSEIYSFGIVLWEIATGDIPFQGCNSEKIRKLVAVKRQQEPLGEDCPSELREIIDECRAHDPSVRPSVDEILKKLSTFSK
In short: as §1

Kd (human RIPK1) [nM]	Kd (human MLKL (full length)) [nM]	SMILES	IC50 [1] [nM]
> 10000	< 1	C[C@H](Oc1cc(-c2nn(C)c3c(-c4cnn(C5CC6(C5)CN(C)C6)c4)cnc(N)c23)ccc1NS(=O)(=O)C(F)F)c1ccc(F)cc1 [Compound 99, (S)-N-(4-(4-amino-1-methyl-7-(1-(2-methyl-2-azaspiro[3.3]heptan-6-yl)-1H-pyrazol-4-yl)-1H-pyrazolo[4,3-c]pyridin-3-yl)-2-(1-(4-fluorophenyl)ethoxy)phenyl)-1,1-difluoromethanesulfonamide]	1000 to 10000
> 10000	1 to 100	C[C@H](Oc1cc(-c2nn(C)c3c(-c4cnn(C5CCN(C)C6(CC6)C5)c4)cnc(N)c23)ccc1NS(=O)(=O)C(F)F)c1ccc(F)cc1 (stereo partly drawn) [Compound 145, N-(4-(4-amino-1-methyl-7-(1-(4-methyl-4-azaspiro[2.5]octan-7-yl)-1H-pyrazol-4-yl)-1H-pyrazolo[4,3-c]pyridin-3-yl)-2-((S)-1-(4-fluorophenyl)ethoxy)phenyl)-1,1-difluoromethanesulfonamide]	< 100
> 10000	1 to 100	C[C@H](Oc1cc(-c2nn(C)c3c(-c4cnn(C5CCN(C)CC5)c4)cnc(N)c23)ccc1NS(=O)(=O)C(F)F)c1ccc(F)cc1 [Compound 46, (S)-N-(4-(4-amino-1-methyl-7-(1-(1-methylpiperidin-4-yl)-1H-pyrazol-4-yl)-1H-pyrazolo[4,3-c]pyridin-3-yl)-2-(1-(4-fluorophenyl)ethoxy)phenyl)-1,1-difluoromethanesulfonamide]	100 to 1000
> 10000	< 1	C[C@H](Oc1cc(-c2nn(C)c3c(-c4cnn(C5CCOCC5)c4)cnc(N)c23)ccc1NS(=O)(=O)C(F)F)c1cccc(Cl)c1 [Compound 122, (S)-N-(4-(4-amino-1-methyl-7-(1-(tetrahydro-2H-pyran-4-yl)-1H-pyrazol-4-yl)-1H-pyrazolo[4,3-c]pyridin-3-yl)-2-(1-(3-chlorophenyl)ethoxy)phenyl)-1,1-difluoromethanesulfonamide]	1000 to 10000
> 10000	< 1	C[C@H](Oc1cc(-c2nn(C)c3c(-c4cnn(C5CC(C)(C)N(C)C(C)(C)C5)c4)cnc(N)c23)ccc1NS(=O)(=O)C(F)F)c1ccc(F)cc1 [Compound 162, (S)-N-(4-(4-amino-1-methyl-7-(1-(1,2,2,6,6-pentamethylpiperidin-4-yl)-1H-pyrazol-4-yl)-1H-pyrazolo[4,3-c]pyridin-3-yl)-2-(1-(4-fluorophenyl)ethoxy)phenyl)-1,1-difluoromethanesulfonamide]	< 100
> 10000	< 1	C[C@H](Oc1cc(-c2nn(C)c3c(-c4cnn(C5CCC(C)(C)N(C)C5)c4)cnc(N)c23)ccc1NS(=O)(=O)C(F)F)c1ccc(F)cc1 (stereo partly drawn) [Compound 104, N-(4-{4-amino-1-methyl-7-[1-(1,6,6-trimethylpiperidin-3-yl)-1H-pyrazol-4-yl]-1H-pyrazolo[4,3-c]pyridin-3-yl}-2-[(1 S)-1-(4-fluorophenyl)ethoxy]phenyl)-1,1-difluoromethanesulfonamide]	100 to 1000
> 10000	1 to 100	C[C@H](Oc1cc(-c2nn(C)c3c(-c4cnn(C5CCC(F)(F)C5)c4)cnc(N)c23)ccc1NS(=O)(=O)C(F)F)c1ccc(F)cc1 (stereo partly drawn) [Compound 120, N-(4-{4-amino-7-[1-(3,3-difluorocyclopentyl)-1H-pyrazol-4-yl]-1-methyl-1H-pyrazolo[4,3-c]pyridin-3-yl}-2-[(1S)-1-(4-fluorophenyl)ethoxy]phenyl)-1,1-difluoromethanesulfonamide]	1000 to 10000
> 10000	1 to 100	C[C@H](Oc1cc(-c2nn(C)c3c(-c4cnn(C5CCC(F)(F)CC5)c4)cnc(N)c23)ccc1NS(=O)(=O)C(F)F)c1ccc(F)cc1 [Compound 146, (S)-N-(4-(4-amino-7-(1-(4,4-difluorocyclohexyl)-1H-pyrazol-4-yl)-1-methyl-1H-pyrazolo[4,3-c]pyridin-3-yl)-2-(1-(4-fluorophenyl)ethoxy)phenyl)-1,1-difluoromethanesulfonamide]	1000 to 10000
> 10000	< 1	C[C@@H](Oc1cc(-c2nn(C)c3c(-c4cnn(C5CCOCC5)c4)cnc(N)c23)ccc1NS(=O)(=O)C(F)F)c1ccc(F)cc1 [Compound 121, (R)-N-(4-(4-amino-1-methyl-7-(1-(tetrahydro-2H-pyran-4-yl)-1H-pyrazol-4-yl)-1H-pyrazolo[4,3-c]pyridin-3-yl)-2-(1-(4-fluorophenyl)ethoxy)phenyl)-1,1-difluoromethanesulfonamide]	1000 to 10000
> 10000	< 1	CC(=O)N1CCC(n2cc(-c3cnc(N)c4c(-c5ccc(NS(=O)(=O)C(F)F)c(O[C@@H](C)c6ccc(F)cc6)c5)nn(C)c34)cn2)CC1 [Compound 109, (S)—N-(4-(7-(1-(1-acetylpiperidin-4-yl)-1H-pyrazol-4-yl)-4-amino-1-methyl-1H-pyrazolo[4,3-c]pyridin-3-yl)-2-(1-(4-fluorophenyl)ethoxy)phenyl)-1,1-difluoromethanesulfonamide]	100 to 1000
> 10000	< 1	CC(n1cc(-c2cnc(N)c3c(-c4ccc(NS(=O)(=O)C(F)F)c(O[C@@H](C)c5ccc(F)cc5)c4)nn(C)c23)cn1)C(F)(F)F (stereo partly drawn) [Compound 142, N-(4-(4-amino-1-methyl-7-(1-(1,1,1-trifluoropropan-2-yl)-1H-pyrazol-4-yl)-1H-pyrazolo[4,3-c]pyridin-3-yl)-2-((S)-1-(4-fluorophenyl)ethoxy)phenyl)-1,1-difluoromethanesulfonamide]	1000 to 10000
> 10000	< 1	C[C@H](Oc1cc(-c2nn(C)c3c(-c4cnn(C5CCN(C)C(C)(C)C5)c4)cnc(N)c23)ccc1NS(=O)(=O)C(F)F)c1ccc(F)cc1 (single isomer, unassigned) [Compound 154, N-(4-(4-amino-1-methyl-7-(1-((R*)-1,2,2-trimethylpiperidin-4-yl)-1H-pyrazol-4-yl)-1H-pyrazolo[4,3-c]pyridin-3-yl)-2-((S)-1-(4-fluorophenyl)ethoxy)phenyl)-1,1-difluoromethanesulfonamide]	< 100
> 10000	1 to 100	C[C@H](Oc1cc(-c2nn(C)c3c(-c4cnn(C5CCCC5)c4)cnc(N)c23)ccc1NS(=O)(=O)C(F)F)c1ccc(F)cc1 [Compound 30, (S)-N-(4-(4-amino-7-(1-cyclopentyl-1H-pyrazol-4-yl)-1-methyl-1H-pyrazolo[4,3-c]pyridin-3-yl)-2-(1-(4-fluorophenyl)ethoxy)phenyl)-1,1-difluoromethanesulfonamide]	1000 to 10000
> 10000	< 1	C[C@H](Oc1cc(-c2nn(C)c3c(-c4cnn(C(C)(C)CO)c4)cnc(N)c23)ccc1NS(=O)(=O)C(F)F)c1ccc(F)cc1 [Compound 97, (S)-N-(4-(4-amino-7-(1-(1-hydroxy-2-methylpropan-2-yl)-1H-pyrazol-4-yl)-1-methyl-1H-pyrazolo[4,3-c]pyridin-3-yl)-2-(1-(4-fluorophenyl)ethoxy)phenyl)-1,1-difluoromethanesulfonamide]	1000 to 10000
> 10000	< 1	C[C@H](Oc1cc(-c2nn(C)c3c(-c4cnn(C5CCN(C)C(C)(C)C5)c4)cnc(N)c23)ccc1NS(=O)(=O)C(F)F)c1ccc(F)cc1 (single isomer, unassigned) [Compound 113]	100 to 1000
> 10000	1 to 100	CC1CN(C)CC(C)C1n1cc(-c2cnc(N)c3c(-c4ccc(NS(=O)(=O)C(F)F)c(O[C@@H](C)c5ccc(F)cc5)c4)nn(C)c23)cn1 (stereo partly drawn) [Compound 172, N-(4-{4-amino-1-methyl-7-[1-(1,3,5-trimethylpiperidin-4-yl)-1H-pyrazol-4-yl]-1H-pyrazolo[4,3-c]pyridin-3-yl}-2-[(1S)-1-(4-fluorophenyl)ethoxy]phenyl)-1,1-difluoromethanesulfonamide]	< 100
> 10000	1 to 100	C[C@H](Oc1cc(-c2nn(C)c3c(-c4cnn(CCC(F)(F)F)c4)cnc(N)c23)ccc1NS(=O)(=O)C(F)F)c1ccc(F)cc1 [Compound 131, (S)-N-(4-(4-amino-1-methyl-7-(1-(3,3,3-trifluoropropyl)-1H-pyrazol-4-yl)-1H-pyrazolo[4,3-c]pyridin-3-yl)-2-(1-(4-fluorophenyl)ethoxy)phenyl)-1,1-difluoromethanesulfonamide]	1000 to 10000
> 10000	1 to 100	Cc1c(-c2cnc(N)c3c(-c4ccc(NS(=O)(=O)C(F)F)c(O[C@@H](C)c5ccc(F)cc5)c4)nn(C)c23)cnn1C1CCN(C)C(C)(C)C1 (stereo partly drawn) [Compound 157, N-(4-(4-amino-1-methyl-7-(5-methyl-1-(1,2,2-trimethylpiperidin-4-yl)-1H-pyrazol-4-yl)-1H-pyrazolo[4,3-c]pyridin-3-yl)-2-((S)-1-(4-fluorophenyl)ethoxy)phenyl)-1,1-difluoromethanesulfonamide]	1000 to 10000
> 10000	< 1	[2H]C([2H])([2H])N1CCC(n2cc(-c3cnc(N)c4c(-c5ccc(NS(=O)(=O)C(F)F)c(O[C@@H](C)c6ccc(F)cc6)c5)nn(C)c34)cn2)CC1 [Compound 103]	1000 to 10000
